The results in this text go back to US10329289B2, “6,7-dihydro-5H-pyrrolo[3,4-B]pyridin-5-one allosteric modulators of the M4 muscarinic acetylcholine receptor” (Merck Sharp & Dohme Corp., priority 2015, dated 2019).

This experiment addresses T1, human M4 muscarinic acetylcholine receptor (Homo sapiens, UniProt P08173).
T1 construct: expressed in transfected cells; host or cells: CHO-K1
T1 sequence (P08173 1-479): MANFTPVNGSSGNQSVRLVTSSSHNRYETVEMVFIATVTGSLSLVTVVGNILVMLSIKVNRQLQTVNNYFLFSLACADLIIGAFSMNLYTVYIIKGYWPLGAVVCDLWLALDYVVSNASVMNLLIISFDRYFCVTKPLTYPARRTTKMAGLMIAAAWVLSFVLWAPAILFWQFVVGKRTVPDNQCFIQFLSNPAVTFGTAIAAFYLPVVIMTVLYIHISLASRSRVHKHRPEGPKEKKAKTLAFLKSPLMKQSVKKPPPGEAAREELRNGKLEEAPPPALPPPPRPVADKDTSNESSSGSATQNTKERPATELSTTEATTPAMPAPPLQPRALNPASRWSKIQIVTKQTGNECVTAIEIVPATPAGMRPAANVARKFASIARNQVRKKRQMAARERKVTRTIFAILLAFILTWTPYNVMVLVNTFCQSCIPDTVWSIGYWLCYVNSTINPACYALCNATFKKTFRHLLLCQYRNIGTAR
Put plainly: human FLIPR-based M4 PAM assay (Ca2+ mobilization, CHO-K1 cells with human M4 receptor and Gαqi5). In kind it is cell-based. The settings on record: acetylcholine at 20% of maximum response, read-out: M4 PAM IP. The essentials:
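Calcium-mobilization (FLIPR) readout in dye-loaded CHO-K1 cells co-expressing human M4 receptor and Gαqi5. Potentiation measured against acetylcholine at a concentration giving 20% of maximal response, with an optional 70% addition; the reported value is the curve inflection point from a 4-parameter logistic fit.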
With `Cc1cc2c(nc1N1CCC(Oc3cnn(C)c3)CC1)CNC2=O` [Example 139, 3-methyl-2-(4-((1-methyl-1H-pyrazol-4-yl)oxy)piperidin-1-yl)-6,7-dihydro-5H-pyrrolo[3,4-b]pyridin-5-one], the EC50 was determined as 106 nM.
For `Cc1c(N2CCC(Oc3ccc4c(c3)C[C@H](O)C4)CC2)nc2c(c1C)C(=O)N(CCO)C2` [Example 264D, (R)-2-(4-((2-hydroxy-2,3-dihydro-1H-inden-5-yl)oxy)piperidin-1-yl)-6-(2-hydroxyethyl)-3,4-dimethyl-6,7-dihydro-5H-pyrrolo[3,4-b]pyridin-5-one], the EC50 came out at 79 nM.
The same measure for `Cc1cc2c(nc1N1CCC(OC[C@@H]3C[C@H]3C(F)(F)F)CC1)CNC2=O` (single isomer, unassigned) [Example 3A, 3-methyl-2-(4-(((trans)-2-(trifluoromethyl)cyclopropyl)methoxy)piperidin-1-yl)-6,7-dihydro-5H-pyrrolo[3,4-b]pyridin-5-one]: 637 nM; for `Cc1cc2c(nc1N1CCC(Oc3cnc4c(c3)oc(=O)n4C)CC1)CNC2=O` [Example 136, 3-methyl-6-((1-(3-methyl-5-oxo-6,7-dihydro-5H-pyrrolo[3,4-b]pyridin-2-yl)piperidin-4-yl)oxy)oxazolo[4,5-b]pyridin-2(3H)-one]: 3470 nM.
The same measure for `COc1ccc(OC2CCN(c3nc4c(cc3C(F)(F)F)C(=O)NC4)CC2)cn1` [Example 230, 2-(4-((6-Methoxypyridin-3-yl)oxy)piperidin-1-yl)-3-(trifluoromethyl)-6,7-dihydro-5H-pyrrolo[3,4-b]pyridin-5-one]: 2120 nM.
To `COc1ncc(OC2CCN(c3nc4c(cc3C)C(=O)NC4)CC2)cc1C` [Example 115, 2-(4-((6-methoxy-5-methylpyridin-3-yl)oxy)piperidin-1-yl)-3-methyl-6,7-dihydro-5H-pyrrolo[3,4-b]pyridin-5-one] belongs 119 nM.
On to `CCc1cc2c(nc1N1CC[C@H](OCC3(C)CC3)[C@@H](F)C1)CN(CCO)C2=O` [Example 266E, 3-ethyl-2-((3S,4S)-3-fluoro-4-((1-methylcyclopropyl)methoxy)piperidin-1-yl)-6-(2-hydroxyethyl)-6,7-dihydro-5H-pyrrolo[3,4-b]pyridin-5-one], for which the EC50 was 159 nM.
The same measure for `Cc1c(N2CC[C@H](OCC3(C)CC3)[C@@H](F)C2)nc2c(c1C)C(=O)N(CCO)C2` [Example 266G, 2-((3S,4S)-3-fluoro-4-((1-methylcyclopropyl)methoxy)piperidin-1-yl)-6-(2-hydroxyethyl)-3,4-dimethyl-6,7-dihydro-5H-pyrrolo[3,4-b]pyridin-5-one]: 69 nM.
Consider `Cc1cc2c(nc1N1CCC(Oc3ccc4[nH]ncc4c3Cl)CC1)CNC2=O` [Example 314, 2-(4-((4-Chloro-1H-indazol-5-yl)ox)piperidin-1-yl)-3-methyl-6,7-dihydro-5H-pyrrolo[3,4-b]pyridin-5-one], for which the EC50 was found to be 676 nM.
In the case of `Cc1cc2c(nc1N1CC[C@@H](Oc3ccccc3)[C@@H](F)C1)CN(CCO)C2=O` [Example 237, 2-((3S,4R)-3-fluoro-4-phenoxypiperidin-1-yl)-6-(2-hydroxyethyl)-3-methyl-6,7-dihydro-5H-pyrrolo[3,4-b]pyridin-5-one], the EC50 was 68 nM.
To `COCCOc1ccc(O[C@@H]2CCN(c3nc4c(cc3C)C(=O)NC4)C[C@H]2F)cn1` [Example 60, 2-((3R,4R)-3-fluoro-4-((6-(2-methoxyethoxy)pyridin-3-yl)oxy)piperidin-1-yl)-3-methyl-6,7-dihydro-5H-pyrrolo[3,4-b]pyridin-5-one] belongs 207 nM.
To `CCc1cc2c(nc1N1CCC(Oc3ccc4cnn(C)c4c3)CC1)CN(CCO)C2=O` [Example 268A, 3-ethyl-6-(2-hydroxyethyl)-2-(4-((1-methyl-1H-indazol-6-yl)oxy)piperidin-1-yl)-6,7-dihydro-5H-pyrrolo[3,4-b]pyridin-5-one] belongs 169 nM; to `CCc1cc2c(nc1N1CCC(OCC3(C)CC3)CC1)CNC2=O` [Example 229, 3-ethyl-2-(4-((1-methylcyclopropyl)methoxy)piperidin-1-yl)-6,7-dihydro-5H-pyrrolo[3,4-b]pyridin-5-one], 36 nM; to `Cc1cc2c(nc1N1CCC(Oc3cccc(Cl)c3)CC1)CNC2=O` [Example 74, 2-(4-(3-chlorophenoxy)piperidin-1-yl)-3-methyl-6,7-dihydro-5H-pyrrolo[3,4-b]pyridin-5-one], 46 nM.
To `Cc1cc2c(nc1N1CCC(Oc3ccc4c(cnn4C)c3)CC1)CN(C)C2=O` [Example 32, 3,6-dimethyl-2-(4-((l-methyl-1H-indazol-5-yl)oxy)piperidin-1-yl)-6,7-dihydro-5H-pyrrolo[3,4-b]pyridin-5-one] belongs 37 nM; to `Cc1cc2c(nc1N1CCC(Oc3cnc4c(c3)COCC4)CC1)CNC2=O` [Example 52, 2-(4-((7,8-dihydro-5H-pyrano[4,3-b]pyridin-3-yl)oxy)piperidin-1-yl)-3-methyl-6,7-dihydro-5H-pyrrolo[3,4-b]pyridin-5-one], 238 nM.
As to `CCc1cc2c(nc1N1CC[C@@H](Oc3cccnc3)[C@@H](F)C1)CNC2=O` (single isomer, unassigned) [Example 215], the EC50 was determined as 304 nM.
To `Cc1cc2c(nc1N1CCC(Oc3ccc4c(c3)CC[C@H]4CCO)CC1)CNC2=O` [Example 157B, (S)-2-(4-((1-(2-hydroxyethyl)-2,3-dihydro-1H-inden-5-yl)oxy)piperidin-1-yl)-3-methyl-6,7-dihydro-5H-pyrrolo[3,4-b]pyridin-5-one] belongs 144 nM.
In the case of `Cc1cc2c(nc1N1CCC(Oc3ccc4[nH]ncc4c3)CC1)CNC2=O` [Example 167, 2-(4-((1H-indazol-5-yl)oxy)piperidin-1-yl)-3-methyl-6,7-dihydro-5H-pyrrolo[3,4-b]pyridin-5-one], the EC50 was 14 nM.
For the molecule `COc1ccc(OC2CCN(c3nc4c(cc3C3CC3)C(=O)NC4)CC2)cn1` [Example 221, 3-cyclopropyl-2-(4-((6-methoxypyridin-3-yl)oxy)piperidin-1-yl)-6,7-dihydro-5H-pyrrolo[3,4-b]pyridin-5-one], the EC50 was 1080 nM.
As for `CCc1cc2c(nc1N1CC[C@@H](Oc3ccc4c(c3)COC4)[C@@H](F)C1)CNC2=O` [Example 214, 2-((3S,4R)-4-((1,3-dihydro-2-benzofuran-5-yl)oxy)-3-fluoropiperidin-1-yl)-3-ethyl-6,7-dihydro-5H-pyrrolo[3,4-b]pyridin-5-one], the EC50 was 93 nM.
In the case of `Cc1cc2c(nc1N1CCC(Oc3ccccc3)CC1)CNC2=O` [Example 5, 3-methyl-2-(4-phenoxypiperidin-1-yl)-6,7-dihydro-5H-pyrrolo[3,4-b]pyridin-5-one], the EC50 was found to be 21 nM.
To `Cc1cc2c(nc1N1CCC(Oc3ccc4cccnc4c3)CC1)CNC2=O` [Example 92, 3-methyl-2-(4-(quinolin-7-yloxy)piperidin-1-yl)-6,7-dihydro-5H-pyrrolo[3,4-b]pyridin-5-one] belongs 461 nM.
With `Cc1c(N2CCC(Oc3cccc(C#N)c3)CC2)nc2c(c1C)C(=O)NC2` [Example 94A, 3-((1-(3,4-dimethyl-5-oxo-6,7-dihydro-5H-pyrrolo[3,4-b]pyridin-2-yl)piperidin-4-yl)oxy)benzonitrile], the EC50 stood at 193 nM.
Regarding `Cc1c(N2CCC(Oc3ccc4c(c3)COC4)CC2)nc2c(c1CO)C(=O)NC2` [Example 303, 2-(4-((1,3-dihydro-2-benzofuran-5-yl)oxy)piperidin-1-yl)-4-(hydroxymethyl)-3-methyl-6,7-dihydro-5H-pyrrolo[3,4-b]pyridin-5-one], the EC50 was determined as 302 nM.
The same measure for `Cc1nc2cc(OC3CCN(c4nc5c(cc4C)C(=O)NC5)CC3)ccc2o1` [Example 123, 3-methyl-2-(4-((2-methylbenzo[d]oxazol-5-yl)oxy)piperidin-1-yl)-6,7-dihydro-5H-pyrrolo[3,4-b]pyridin-5-one]: 144 nM; for `Cc1cc2c(nc1N1CCC(Oc3ccc([C@H](C)O)cc3)CC1)CNC2=O` (single isomer, unassigned) [Example 150B]: 197 nM; for `CCOc1ccc(OC2CCN(c3nc4c(cc3C)C(=O)NC4)CC2)cn1` [Example 34, 2-(4-((6-ethoxypyridin-3-yl)oxy)piperidin-1-yl)-3-methyl-6,7-dihydro-5H-pyrrolo[3,4-b]pyridin-5-one]: 26 nM.
Turning to `Cc1c(N2CC[C@@H](OCC3(C)CC3)[C@@H](F)C2)nc2c(c1C)C(=O)N(C)[C@@H]2CO` [Example 341A, (S)-2-((3S,4R)-3-fluoro-4-((1-methylcyclopropyl)methoxy)piperidin-1-yl)-7-(hydroxymethyl)-3,4,6-trimethyl-6,7-dihydro-5H-pyrrolo[3,4-b]pyridin-5-one], the EC50 was determined as 9 nM.
On to `CCc1cc2c(nc1N1CCC(Oc3ccc4c(c3)OCC4)CC1)[C@@H](CO)N(C)C2=O` [Example 365, (S)-2-(4-((2,3-dihydrobenzofuran-6-yl)oxy)piperidin-1-yl)-3-ethyl-7-(hydroxymethyl)-6-methyl-6,7-dihydro-5H-pyrrolo[3,4-b]pyridin-5-one], for which the EC50 was 26 nM.
